These molecules were tested against WDR5 (Homo sapiens, UniProt P61964) (assay: Screening of putative WDR5 degraders by Western blot in MV4;11 and/or MIAPACA2 cells). Details: summary of screening, FIGS. 6-10.
Type: cell-based
Design: After WDR5 degrader treatment, cells were collected and lysed; endogenous in cells; host or cells: MV4;11 and/or MIAPACA2
In short: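 MV4;11 (1×10^6/well) or MIAPACA2 (1×10^5/well) cells treated 18 h with compound at paired doses between 0.1 and 10 μM, DMSO as control. Total lysates immunoblotted for WDR5 with vinculin, tubulin or GAPDH loading controls; fluorescent secondary detection.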
With `C[C@@H]1CN(c2cc(F)c(-c3cnc(N4CCN(C(=O)CCOCCOCCOCCNc5cccc6c5C(=O)N(C5CCC(=O)NC5=O)C6=O)CC4)nc3)cc2NC(=O)c2ccc(F)cc2C(F)(F)F)C[C@H](C)N1C` (stereo partly drawn) [XF078-125, N-(5-(2-(4-(3-(2-(2-(2-((2-(2,6-dioxopiperidin-3-yl)-1,3-dioxoisoindolin-4-yl)amino)ethoxy)ethoxy)ethoxy)propanoyl)piperazin-1-yl)pyrimidin-5-yl)-4-fluoro-2-((3S,5R)-3,4,5-trimethylpiperazin-1-yl)phenyl)-4-fluoro-2-(trifluoromethyl)benzamide] the “effective degradation of WDR5 in MV4;11 and/or MIAPACA2 cells” value (“effective degradation of WDR5” for short) was “able to effectively degrade WDR5”.
With `C[C@@H]1CN(c2ccc(-c3cc(CN4CCN(CCNC(=O)CCOCCOCCOCCOCCOCCNc5cccc6c5C(=O)N(C5CCC(=O)NC5=O)C6=O)CC4)ccc3F)cc2NC(=O)c2c[nH]c(=O)cc2C(F)(F)F)C[C@H](C)N1C` (stereo partly drawn) [XF078-29, N-(5′-((4-(1-((2-(2,6-dioxopiperidin-3-yl)-1,3-dioxoisoindolin-4-yl)amino)-18-oxo-3,6,9,12,15-pentaoxa-19-azahenicosan-21-yl)piperazin-1-yl)methyl)-2′-fluoro-4-((3S,5R)-3,4,5-trimethylpiperazin-1-yl)-[1,1′-biphenyl]-3-yl)-6-oxo-4-(trifluoromethyl)-1,6-dihydropyridine-3-carboxamide] the “effective degradation of WDR5” value was “able to effectively degrade WDR5”.
`Cc1ncsc1-c1ccc(CNC(=O)[C@@H]2C[C@@H](O)CN2C(=O)[C@@H](NC(=O)CCCCCCCNC(=O)c2ccc(-c3ccc(N4C[C@@H](C)N(C)[C@@H](C)C4)c(NC(=O)c4c[nH]c(=O)cc4C(F)(F)F)c3)c(F)c2)C(C)(C)C)cc1` [XF056-171, N-(2′-fluoro-4′-((8-(((S)-1-((2S,4R)-4-hydroxy-2-((4-(4-methylthiazol-5-yl)benzyl)carbamoyl)pyrrolidin-1-yl)-3,3-dimethyl-1-oxobutan-2-yl)amino)-8-oxooctyl)carbamoyl)-4-((3R,5S)-3,4,5-trimethylpiperazin-1-yl)-[1,1′-biphenyl]-3-yl)-6-oxo-4-(trifluoromethyl)-1,6-dihydropyridine-3-carboxamide] was tested, and the “effective degradation of WDR5” value was “able to effectively degrade WDR5”.
In the case of `Cc1ncsc1-c1ccc(CNC(=O)[C@@H]2C[C@@H](O)CN2C(=O)[C@@H](NC(=O)COCC(=O)N2CC=C(c3cc(NC(=O)c4c[nH]c(=O)cc4C(F)(F)F)c(N4C[C@@H](C)N(C)[C@@H](C)C4)cc3F)CC2)C(C)(C)C)cc1` [XF078-30, N-(4-fluoro-5-(1-(2-(2-(((S)-1-((2S,4R)-4-hydroxy-2-((4-(4-methylthiazol-5-yl)benzyl)carbamoyl)pyrrolidin-1-yl)-3,3-dimethyl-1-oxobutan-2-yl)amino)-2-oxoethoxy)acetyl)-1,2,3,6-tetrahydropyridin-4-yl)-2-((3S,5R)-3,4,5-trimethylpiperazin-1-yl)phenyl)-6-oxo-4-(trifluoromethyl)-1,6-dihydropyridine-3-carboxamide], the “effective degradation of WDR5” value is reported as “able to effectively degrade WDR5”.
With `Cc1ncsc1-c1ccc(CNC(=O)[C@@H]2C[C@@H](O)CN2C(=O)[C@@H](NC(=O)COCCOCCOCC(=O)N2CCN(Cc3cnc(N4CC=C(c5cc(NC(=O)c6c[nH]c(=O)cc6C(F)(F)F)c(N6C[C@@H](C)N(C)[C@@H](C)C6)cc5F)CC4)nc3)CC2)C(C)(C)C)cc1` [XF078-136, N-(4-fluoro-5-(1-(5-((4-((S)-13-((2S,4R)-4-hydroxy-2-((4-(4-methylthiazol-5-yl)benzyl)carbamoyl)pyrrolidine-1-carbonyl)-14,14-dimethyl-11-oxo-3,6,9-trioxa-12-azapentadecanoyl)piperazin-1-yl)methyl)pyrimidin-2-yl)-1,2,3,6-tetrahydropyridin-4-yl)-2-((3S,5R)-3,4,5-trimethylpiperazin-1-yl)phenyl)-6-oxo-4-(trifluoromethyl)-1,6-dihydropyridine-3-carboxamide] the “effective degradation of WDR5” value was “able to effectively degrade WDR5”.
In the case of `Cc1ncsc1-c1ccc(CNC(=O)[C@@H]2C[C@@H](O)CN2C(=O)[C@@H](NC(=O)CCOCCOCCC(=O)N2CCN(c3ncc(-c4cc(NC(=O)c5ccc(F)cc5C(F)(F)F)c(N5C[C@@H](C)N(C)[C@@H](C)C5)cc4F)cn3)CC2)C(C)(C)C)cc1` [XF078-102, (2S,4R)-1-((S)-2-(3-(2-(3-(4-(5-(2-fluoro-5-(4-fluoro-2-(trifluoromethyl)benzamido)-4-((3S,5R)-3,4,5-trimethylpiperazin-1-yl)phenyl)pyrimidin-2-yl)piperazin-1-yl)-3-oxopropoxy)ethoxy)propanamido)-3,3-dimethylbutanoyl)-4-hydroxy-N-(4-(4-methylthiazol-5-yl)benzyl)pyrrolidine-2-carboxamide], the “effective degradation of WDR5” value is reported as “able to effectively degrade WDR5”.
`Cc1ncsc1-c1ccc(CNC(=O)[C@@H]2C[C@@H](O)CN2C(=O)[C@@H](NC(=O)CCCCCC(=O)N2CC=C(c3cc(NC(=O)c4c[nH]c(=O)cc4C(F)(F)F)c(N4C[C@@H](C)N(C)[C@@H](C)C4)cc3F)CC2)C(C)(C)C)cc1` [XF078-42, N-(4-fluoro-5-(1-(7-(((S)-1-((2S,4R)-4-hydroxy-2-((4-(4-methylthiazol-5-yl)benzyl)carbamoyl)pyrrolidin-1-yl)-3,3-dimethyl-1-oxobutan-2-yl)amino)-7-oxoheptanoyl)-1,2,3,6-tetrahydropyridin-4-yl)-2-((3S,5R)-3,4,5-trimethylpiperazin-1-yl)phenyl)-6-oxo-4-(trifluoromethyl)-1,6-dihydropyridine-3-carboxamide] was tested, and the “effective degradation of WDR5” value was “able to effectively degrade WDR5”.
For `C[C@@H]1CN(c2cc(F)c(C3=CCN(c4ncc(CN5CCN(C(=O)CNc6cccc7c6C(=O)N(C6CCC(=O)NC6=O)C7=O)CC5)cn4)CC3)cc2NC(=O)c2c[nH]c(=O)cc2C(F)(F)F)C[C@H](C)N1C` (stereo partly drawn) [XF078-149, N-(5-(1-(5-((4-((2-(2,6-dioxopiperidin-3-yl)-1,3-dioxoisoindolin-4-yl)glycyl)piperazin-1-yl)methyl)pyrimidin-2-yl)-1,2,3,6-tetrahydropyridin-4-yl)-4-fluoro-2-((3S,5R)-3,4,5-trimethylpiperazin-1-yl)phenyl)-6-oxo-4-(trifluoromethyl)-1,6-dihydropyridine-3-carboxamide], the “effective degradation of WDR5” value was “able to effectively degrade WDR5”.
In the case of `C[C@@H]1CN(c2cc(F)c(-c3cnc(N4CCN(C(=O)CCOCCOCCOCCOCCOCCNc5cccc6c5C(=O)N(C5CCC(=O)NC5=O)C6=O)CC4)nc3)cc2NC(=O)c2ccc(F)cc2C(F)(F)F)C[C@H](C)N1C` (stereo partly drawn) [XF078-127, N-(5-(2-(4-(1-((2-(2,6-dioxopiperidin-3-yl)-1,3-dioxoisoindolin-4-yl)amino)-3,6,9,12,15-pentaoxaoctadecan-18-oyl)piperazin-1-yl)pyrimidin-5-yl)-4-fluoro-2-((3S,5R)-3,4,5-trimethylpiperazin-1-yl)phenyl)-4-fluoro-2-(trifluoromethyl)benzamide], the “effective degradation of WDR5” value is reported as “able to effectively degrade WDR5”.
`Cc1ncsc1-c1ccc(CNC(=O)[C@@H]2C[C@@H](O)CN2C(=O)[C@@H](NC(=O)CCCCCC(=O)N2CCN(Cc3cnc(N4CC=C(c5cc(NC(=O)c6c[nH]c(=O)cc6C(F)(F)F)c(N6C[C@@H](C)N(C)[C@@H](C)C6)cc5F)CC4)nc3)CC2)C(C)(C)C)cc1` [XF078-144, N-(4-fluoro-5-(1-(5-((4-(7-(((S)-1-((2S,4R)-4-hydroxy-2-((4-(4-methylthiazol-5-yl)benzyl)carbamoyl)pyrrolidin-1-yl)-3,3-dimethyl-1-oxobutan-2-yl)amino)-7-oxoheptanoyl)piperazin-1-yl)methyl)pyrimidin-2-yl)-1,2,3,6-tetrahydropyridin-4-yl)-2-((3S,5R)-3,4,5-trimethylpiperazin-1-yl)phenyl)-6-oxo-4-(trifluoromethyl)-1,6-dihydropyridine-3-carboxamide] was tested, and the “effective degradation of WDR5” value was “able to effectively degrade WDR5”.
For `Cc1ncsc1-c1ccc(CNC(=O)[C@@H]2C[C@@H](O)CN2C(=O)[C@@H](NC(=O)CCCCCCCCCC(=O)N2CCN(c3ncc(-c4cc(NC(=O)c5ccc(F)cc5C(F)(F)F)c(N5C[C@@H](C)N(C)[C@@H](C)C5)cc4F)cn3)CC2)C(C)(C)C)cc1` [XF078-115, (2S,4R)-1-((S)-2-(11-(4-(5-(2-fluoro-5-(4-fluoro-2-(trifluoromethyl)benzamido)-4-((3S,5R)-3,4,5-trimethylpiperazin-1-yl)phenyl)pyrimidin-2-yl)piperazin-1-yl)-11-oxoundecanamido)-3,3-dimethylbutanoyl)-4-hydroxy-N-(4-(4-methylthiazol-5-yl)benzyl)pyrrolidine-2-carboxamide], the “effective degradation of WDR5” value was “able to effectively degrade WDR5”.
In the case of `C[C@@H]1CN(c2ccc(-c3cc(CN4CCN(CCNC(=O)CCOCCOCCOCCOCCNc5cccc6c5C(=O)N(C5CCC(=O)NC5=O)C6=O)CC4)ccc3F)cc2NC(=O)c2c[nH]c(=O)cc2C(F)(F)F)C[C@H](C)N1C` (stereo partly drawn) [XF078-28, N-(5′-((4-(1-((2-(2,6-dioxopiperidin-3-yl)-1,3-dioxoisoindolin-4-yl)amino)-15-oxo-3,6,9,12-tetraoxa-16-azaoctadecan-18-yl)piperazin-1-yl)methyl)-2′-fluoro-4-((3S,5R)-3,4,5-trimethylpiperazin-1-yl)-[1,1′-biphenyl]-3-yl)-6-oxo-4-(trifluoromethyl)-1,6-dihydropyridine-3-carboxamide], the “effective degradation of WDR5” value is reported as “able to effectively degrade WDR5”.

Reference: patent publication US12110295B2, “WD40 repeat domain protein 5 (WDR5) degradation/disruption compounds and methods of use” (Icahn School of Medicine at Mount Sinai, priority 2018, dated 2024)
